In brackets after ≈: the same amount, converted by molar mass. Where a SMILES comes first, the peptide text is derived from it. Bridges are numbered along the chain shown (N, C = ends). Roman numbers before positions name the chains, in order. [ ]: non-standard residue; d: D form. The star is where a group is joined. Thr(ol) = C[C@@H](O)[C@H](N)CO; Tle = CC(C)(C)[C@H](N)C(=O)O; NMeV = CN[C@H](C(=O)O)C(C)C; Hiv = CC(C)[C@H](O)C(=O)O; Isovaleryl = CC(C)CC(=O)*; dDab = NCC[C@@H](N)C(=O)O; hSer = N[C@@H](CCO)C(=O)O; NHCH(CH2OH)2 = OCC(CO)N*; Orn = NCCC[C@H](N)C(=O)O; Dab = NCC[C@H](N)C(=O)O; Dap = NC[C@H](N)C(=O)O
Experiments:
Type in all cases: cell-based
[1] = tested on: Acinetobacter baumannii 872842; conditions: 872842
Summary of the method: (§1)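 Peptides are tested in serial two-fold dilutions against about 10^6 CFU/mL in MH-II broth containing 0.002% P-80 (v/v, final). Plates incubate 18-20 h at 35° C, and the MIC is the lowest peptide level (μg/mL) showing no visible growth.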

[2] = tested on: Acinetobacter baumannii DSM 30008; conditions: DSM 30008
Summary of the method: as §1

[3] = tested on: Enterobacter cloacae 848840; conditions: 848840
Summary of the method: as §1

Escherichia coli 926415 = conditions: 926415
Summary of the method: as §1

[4] = tested on: Escherichia coli ATCC 25922; conditions: ATCC 25922
Summary of the method: as §1

[5] = tested on: Klebsiella pneumoniae 968733; conditions: 968733
Summary of the method: as §1

[6] = tested on: Klebsiella pneumoniae SSI #3010; conditions: SSI #3010
Summary of the method: as §1

[7] = tested on: Pseudomonas aeruginosa ATCC 27853; conditions: ATCC 27853
Summary of the method: as §1

[8] = tested on: human red blood cells (hRBC); assay: Hemolysis; conditions: red cells of human, 1 h, 200
Summary of the method: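 hRBC washed 4× in PBS; 200 μg/mL peptide + 20% (v/v) hRBC, 1 h, 37° C, 300 rpm. Spin, supernatant ~7.5-fold diluted, OD540 blank corrected. % hemolysis = OD540 peptide / OD540 Triton X-100 × 100.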

SMILES	MIC [1] [µg/mL]	MIC [2] [µg/mL]	MIC [3] [µg/mL]	MIC (Escherichia coli 926415) [µg/mL]	MIC [4] [µg/mL]	MIC [5] [µg/mL]	MIC [6] [µg/mL]	MIC [7] [µg/mL]	Hemolysis at 200 μg/mL [8] [%]	Acinetobacter baumannii DSM 30008 MIC [2] [µg/mL]	Escherichia coli ATCC 25922 MIC [4] [µg/mL]	Klebsiella pneumoniae SSI #3010 MIC [6] [µg/mL]	Pseudomonas aeruginosa ATCC 27853 MIC [7] [µg/mL]
CC(C)CC(=O)N[C@H]1CSSC[C@@H](C(=O)N[C@H](CO)[C@@H](C)O)NC(=O)[C@H](C(C)(C)C)NC(=O)[C@H](CO)NC(=O)[C@H](Cc2c[nH]c3ccccc23)NC(=O)[C@H]([C@@H](C)O)NC(=O)[C@@H](CCN)NC(=O)[C@H](CCC(=O)N[C@@H](CCN)C(=O)N[C@H](C(=O)N[C@@H](CCN)C(=O)N[C@H]2CCNC(=O)[C@H]([C@@H](C)O)NC(=O)[C@H](CCN)NC(=O)[C@H](CCN)NC(=O)[C@H](CC(C)C)NC(=O)[C@@H](CC(C)C)NC(=O)[C@H](CCN)NC2=O)[C@@H](C)O)NC(=O)[C@H](CN)NC(=O)[C@H](Cc2ccc(O)cc2)NC1=O [Example 4] (I: Isovaleryl-CY[Dap]E[dDab]TWS[Tle]C[Thr(ol)] / II: [Dab]T[Dab][Dab][Dab][dL]L[Dab][Dab]T; disulfide I:1-I:10; amide I:4-II:N; lactam II:4-II:C)	0.125 (≈ 0.0527 µM)	0.0625 (≈ 0.0264 µM)	0.25 (≈ 0.105 µM)	0.25 (≈ 0.105 µM)	0.125 (≈ 0.0527 µM)	0.5 (≈ 0.211 µM)	0.125 (≈ 0.0527 µM)	0.125 (≈ 0.0527 µM)	1	–	–	–	–
CC(=O)N[C@@H](Cc1ccc(O)cc1)C(=O)N[C@H]1CSSC[C@@H](C(=O)NC(CO)CO)NC(=O)[C@H](Cc2c[nH]c3ccccc23)NC(=O)[C@H](CO)NC(=O)[C@H](C(C)C)NC(=O)[C@H](CCO)NC(=O)[C@@H](CCN)NC(=O)[C@H](CCC(=O)N[C@@H](CCN)C(=O)N[C@H](C(=O)N[C@@H](CCN)C(=O)N[C@H]2CCNC(=O)[C@H]([C@@H](C)O)NC(=O)[C@H](CCN)NC(=O)[C@H](CCN)NC(=O)[C@H](CC(C)C)NC(=O)[C@@H](CC(C)C)NC(=O)[C@H](CCN)NC2=O)[C@@H](C)O)NC(=O)[C@H](CCN)NC(=O)[C@H](C(C)C)NC1=O [Ex. 98] (I: Ac-YCV[Dab]E[dDab][hSer]VSWC-{NHCH(CH2OH)2} / II: [Dab]T[Dab][Dab][Dab][dL]L[Dab][Dab]T; disulfide I:2-I:11; amide I:5-II:N; lactam II:4-II:C)	2 (≈ 0.829 µM)	0.25 (≈ 0.104 µM)	2 (≈ 0.829 µM)	2 (≈ 0.829 µM)	0.125 (≈ 0.0518 µM)	4 (≈ 1.66 µM)	0.25 (≈ 0.104 µM)	0.25 (≈ 0.104 µM)	<1	–	–	–	–
CC(C)C[C@@H]1NC(=O)[C@@H](CC(C)C)NC(=O)[C@H](CCN)NC(=O)[C@@H](NC(=O)[C@H](CN)NC(=O)[C@@H](NC(=O)[C@H](CCN)NC(=O)CC[C@@H]2NC(=O)[C@H](CCCN)NC(=O)[C@H](CCN)NC(=O)[C@H](Cc3ccc(O)cc3)NC(=O)[C@@H](NC(=O)[C@@H](O)C(C)C)CSSC[C@@H](C(=O)N[C@H](C(N)=O)[C@@H](C)O)NC(=O)[C@H](C(C)(C)C)NC(=O)[C@H](CO)NC(=O)[C@H](Cc3c[nH]c4ccccc34)NC(=O)[C@H]([C@@H](C)O)NC2=O)[C@@H](C)O)CCNC(=O)[C@H]([C@@H](C)O)NC(=O)[C@H](CCN)NC(=O)[C@H](CCN)NC1=O [Ex. 160] (I: H-[Hiv]CY[Dab][Orn]ETWS[Tle]CT-NH2 / II: [Dab]T[Dap][Dab][Dab][dL]L[Dab][Dab]T; disulfide I:2-I:11; amide I:6-II:N; lactam II:4-II:C)	0.5 (≈ 0.207 µM)	0.125 (≈ 0.0518 µM)	2 (≈ 0.829 µM)	0.5 (≈ 0.207 µM)	0.125 (≈ 0.0518 µM)	0.5 (≈ 0.207 µM)	0.25 (≈ 0.104 µM)	0.25 (≈ 0.104 µM)	<1	–	–	–	–
CC(=O)N[C@H](C(=O)N[C@H]1CSSC[C@@H](C(=O)N[C@@H](CO)C(=O)N[C@H](CC(=O)O)C(N)=O)NC(=O)[C@H](C(C)C)NC(=O)[C@H](CO)NC(=O)[C@H](Cc2c[nH]c3ccccc23)NC(=O)[C@H](CO)NC(=O)[C@@H](CCN)NC(=O)[C@H](CCC(=O)N[C@@H](CCN)C(=O)N[C@H](C(=O)N[C@@H](CN)C(=O)N[C@H]2CCNC(=O)[C@H]([C@@H](C)O)NC(=O)[C@H](CCN)NC(=O)[C@H](CCN)NC(=O)[C@H](CC(C)C)NC(=O)[C@@H](CC(C)C)NC(=O)[C@H](CCN)NC2=O)[C@@H](C)O)NC(=O)[C@H](CCN)NC(=O)[C@H](Cc2ccc(O)cc2)NC1=O)C(C)C [Ex. 374] (I: Ac-VCY[Dab]E[dDab]SWSVCS[dD]-NH2 / II: [Dab]T[Dap][Dab][Dab][dL]L[Dab][Dab]T; disulfide I:2-I:11; amide I:5-II:N; lactam II:4-II:C)	0.25 (≈ 0.0994 µM)	–	0.25 (≈ 0.0994 µM)	0.5 (≈ 0.199 µM)	–	1 (≈ 0.398 µM)	–	–	<1	0.0625	0.0625	0.0625	0.125
CN[C@H](C(=O)N[C@H]1CSSC[C@@H](C(=O)N[C@@H](CO)C(N)=O)NC(=O)[C@H](C(C)(C)C)NC(=O)[C@H](CCO)NC(=O)[C@H](Cc2c[nH]c3ccccc23)NC(=O)[C@H](CCO)NC(=O)[C@@H](CCN)NC(=O)[C@H](CCC(=O)N[C@@H](CCN)C(=O)N[C@H](C(=O)N[C@@H](CCN)C(=O)N[C@H]2CCNC(=O)[C@H]([C@@H](C)O)NC(=O)[C@H](CCN)NC(=O)[C@H](CCN)NC(=O)[C@H](CC(C)C)NC(=O)[C@@H](CC(C)C)NC(=O)[C@H](CCN)NC2=O)[C@@H](C)O)NC(=O)[C@H](CCN)NC(=O)[C@H](Cc2ccc(O)cc2)NC1=O)C(C)C [Ex. 51] (I: H-[NMeV]CY[Dab]E[dDab][hSer]W[hSer][Tle]CS-NH2 / II: [Dab]T[Dab][Dab][Dab][dL]L[Dab][Dab]T; disulfide I:2-I:11; amide I:5-II:N; lactam II:4-II:C)	0.25 (≈ 0.103 µM)	0.5 (≈ 0.206 µM)	0.5 (≈ 0.206 µM)	0.5 (≈ 0.206 µM)	0.25 (≈ 0.103 µM)	1 (≈ 0.412 µM)	0.125 (≈ 0.0515 µM)	0.125 (≈ 0.0515 µM)	<1	–	–	–	–
CC(C)C[C@@H]1NC(=O)[C@@H](CC(C)C)NC(=O)[C@H](CCN)NC(=O)[C@@H](NC(=O)[C@H](CN)NC(=O)[C@@H](NC(=O)[C@H](CCN)NC(=O)CC[C@@H]2NC(=O)[C@@H](CCN)NC(=O)CNC(=O)[C@H](CCN)NC(=O)[C@H](Cc3ccc(O)cc3)NC(=O)[C@@H](NC(=O)[C@@H](O)C(C)C)CSSC[C@@H](C(=O)NC(CO)CO)NC(=O)[C@H](C(C)(C)C)NC(=O)[C@H](CO)NC(=O)[C@H](Cc3c[nH]c4ccccc34)NC2=O)[C@@H](C)O)CCNC(=O)[C@H]([C@@H](C)O)NC(=O)[C@H](CCN)NC(=O)[C@H](CCN)NC1=O [Ex. 174] (I: H-[Hiv]CY[Dab]G[dDab]EWS[Tle]C-{NHCH(CH2OH)2} / II: [Dab]T[Dap][Dab][Dab][dL]L[Dab][Dab]T; disulfide I:2-I:11; amide I:7-II:N; lactam II:4-II:C)	0.125 (≈ 0.0537 µM)	0.0625 (≈ 0.0268 µM)	0.25 (≈ 0.107 µM)	0.125 (≈ 0.0537 µM)	0.0625 (≈ 0.0268 µM)	0.25 (≈ 0.107 µM)	0.0625 (≈ 0.0268 µM)	0.125 (≈ 0.0537 µM)	<1	–	–	–	–
CC(C)C[C@@H]1NC(=O)[C@@H](CC(C)C)NC(=O)[C@H](CCN)NC(=O)[C@@H](NC(=O)[C@H](CN)NC(=O)[C@@H](NC(=O)[C@H](CCN)NC(=O)CC[C@@H]2NC(=O)[C@@H](CCN)NC(=O)CNC(=O)[C@@H](NC(=O)[C@H](Cc3ccc(O)cc3)NC(=O)[C@@H](NC(=O)[C@@H](O)C(C)C)[C@@H](C)O)CSSC[C@@H](C(=O)N[C@H](C(=O)N[C@@H](C)C(=O)N[C@H](CO)[C@@H](C)O)C(C)(C)C)NC(=O)[C@H](Cc3c[nH]c4ccccc34)NC2=O)[C@@H](C)O)CCNC(=O)[C@H]([C@@H](C)O)NC(=O)[C@H](CCN)NC(=O)[C@H](CCN)NC1=O [Ex. 213] (I: H-[Hiv]TYCG[dDab]EWC[Tle]A[Thr(ol)] / II: [Dab]T[Dap][Dab][Dab][dL]L[Dab][Dab]T; disulfide I:4-I:9; amide I:7-II:N; lactam II:4-II:C)	0.125 (≈ 0.0537 µM)	0.0625 (≈ 0.0268 µM)	1 (≈ 0.43 µM)	0.5 (≈ 0.215 µM)	0.125 (≈ 0.0537 µM)	0.5 (≈ 0.215 µM)	0.125 (≈ 0.0537 µM)	0.25 (≈ 0.107 µM)	<1	–	–	–	–

Reference: patent US11629171B2, “Beta-hairpin peptidomimetics” (POLYPHOR AG, priority 2017, dated 2023)
